Source: patent US9603896B2, “Peptide compounds and methods of production and use thereof” (priority 2012, dated 2017)

Tested on: cytokines in mouse cornea
Assay: Cytokines in corneal lysates after intrastromal injection (MILLIPLEX MAP mouse cytokine assay)
Assay type: in vivo
Conditions: intrastromal 0.5 μl, 10^−4, 10^−5, 10^−6 M; 24 and 48 hours
Method: Corneas were injected intrastromally with 0.5 μl of peptide 95-122 at a final concentration of 10^−4 M, 10^−5 M, and 10^−6 M and vehicle (saline) control. Corneas were collected and flash frozen at 24 hours and 48 hours. Corneal lysates were analyzed for cytokines using the MILLIPLEX® MAP mouse cytokine assay for IL-7(A), IL-15 (B), IFN-γ (C), MIP1-α (D) (EMD Millipore Corp., Billerica, Mass.). The means of independent experimental values are shown ±SEM. ***P<0.001, **P<0.01, *P<0.05 by unpaired t-test as compared to vehicle treated controls. […] Corneas were injected intrastromally with 0.5 μl of peptide 95-122 at a final concentration of 10^−4 M, 10^−5 M, and 10^−6 M and vehicle (saline) control. Corneas were collected and flash frozen at 24 hours and 48 hours. Corneal lysates were analyzed for cytokines using the MILLIPLEX® MAP mouse cytokine assay for MIP1-β (EMD Millipore Corp., Billerica, Mass.). **P<0.01, *P<0.05 by unpaired t-test as compared to vehicle treated controls. […] Corneas were injected intrastromally with 0.5 μl of peptide 95-122 at a final concentration of 10^−4 M, 10^−5 M, and 10^−6 M and vehicle (saline) control. Corneas were collected and flash frozen at 24 hours and 48 hours. Corneal lysates were analyzed for cytokines using the MILLIPLEX® MAP mouse cytokine assay for KC (A), IL-1β (B), and GM-CSF (C) (EMD Millipore Corp., Billerica, Mass.). **P<0.01, *P<0.05 by unpaired t-test as compared to vehicle treated controls.

LDREANLTSSVTILPLPLQNATVEAGTR (listed as Homo sapiens) [Peptide 95-122]
significantly increases: GM-CSF in corneal lysates | IFN-γ in corneal lysates | IL-1β in corneal lysates | IL-7 in corneal lysates | IL-15 in corneal lysates | KC in corneal lysates | MIP1-13 in corneal lysates | MIP1-α in corneal lysates
